# Measurements taken from patent US20200147116A1, “Use of Paeoniflorin-6'-O-benzenesulfonate in treatment of Sjögren's syndrome” (NINGBO ZHIMING BIOTECHNOLOGY CO., LTD., priority 2017, published 2020).
# Marks after values point to notes of the source that are not given here.
# Key:
# Format in all cases: in vivo
# spleen B lymphocytes = experiment: Spleen B lymphocyte proliferation in NOD model mice (FIG. 12B)
# Description: FIG. 12 Effects of CP-25 on spleen T and B lymphocyte proliferation in NOD model mice.
# A: T lymphocytes; B: B lymphocytes
# NOD model mice = experiment: Organic indexes (spleen, submaxillary gland, thymus) in NOD model mice
# spleen B lymphocyte = experiment: Spleen B lymphocyte proliferation in SS model mice (FIG. 3)
# Description: FIG. 3 Effects of CP-25 on spleen B lymphocyte proliferation in SS model mice.
# SS mice = experiment: Organic indexes (spleen, submaxillary gland, thymus) in SS mice
# Description: 2 Sjögren's syndrome model mice: C57BL/6 female mice housed in a SPF environment with successful modeling (The animal model was made via repeated multi-point intracutaneous injection of submaxillary gland homogenate of homologous mice to tail and back of mice). The animal model was made via repeated multi-point intracutaneously injection of submaxillary gland homogenate of homologous mice to tail and back of mice, and the mice with successful modeling were randomly assigned to each group according to comprehensive conditions of mice. At the same time, the average weight and status of each group of mice should be as close as possible. Paeoniflorin-6′-O-benzenesulfonate, white crystalline powder, purity 98.5%, was dissolved in trace ethanol (75 mg of CP-25 was soluble in 40 μl of ethanol), and then sodium carboxymethylcellulose was added to formulate a suspension of CP-25. Corresponding dose gradient, low dose (17.5 mg/kg), medium dose (35 mg/kg) and high dose (70 mg/kg) of said pharmaceutical should be prepared before medication, stored in 4° C. refrigerator for use. High dose of said pharmaceutical should be incubated for half an hour before use.
# [1] = test system: spleen CD4+ CD25+ FOXP3+ T lymphocytes; experiment: Spleen CD4+ CD25+ FOXP3+ T lymphocytes in NOD model mice (FIG. 14)
# Description: FIG. 14 Effects of CP-25 on spleen CD4^+ CD25^+ FOXP3^+ T lymphocytes in NOD model mice.
# [2] = test system: Sjögren's syndrome model mice; experiment: Water intake in Sjögren's syndrome model mice; conditions: therapeutic mice, after a week of administration; model control always tends to rise
# Description: In this invention, low dose (17.5 mg/kg), medium dose (35 mg/kg) and high dose (70 mg/kg) of CP-25 were respectively administrated by gavage to each of randomly assigned group of Sjögren's syndrome model mice for two weeks. Water intake, saliva amount and submaxillary gland pathological analysis and score were determined respectively, on the day before administration, the 7th day and 14th day after administration. The therapeutic effects of CP-25 on Sjögren's syndrome were evaluated by comparison of changes of each index before and after treatment.
# However, the water intake in mice of model control group always tends to rise.
# [3] = test system: submaxillary glands in NOD mice; experiment: Pathological grading of submaxillary glands in NOD mice; conditions: for Score: mice with submaxillary gland pathology Grade 0 / Score: mice with submaxillary gland pathology Grade I / Score: mice with submaxillary gland pathology Grade II / Score: mice with submaxillary gland pathology Grade III / Score: mice with submaxillary gland pathology Grade IV: NOD mice
# Description: Mice were sacrificed after two weeks of administration, and then submaxillary glands of four mice of each group were removed and pathologically observed. At first, the submaxillary gland should be fixed in 10% buffered formalin for 24 h, followed by washing, dehydration and clearing, wax-filling, embedding, sectioning and finally H&E staining. […] Results were graded pathologically.
# Note: The histological findings graded of submaxillary glands according to the Chisholm-Mason scale; grade 0, absence of lymphocytic infiltration; grade I, slight lymphocytic infiltration; grade II, moderate lymphocytic infiltration; grade III, one focus of lymphocytic infiltration per 4 mm^2 tissue; grade IV, more than one focus of lymphocytic infiltration per 4 mm^2 tissue (Note: One focus of lymphocytic infiltration has been defined as an aggregate of 50 or more lymphocytes gathered in the labial gland stroma per 4 mm^2 of tissue.
smiles,measurement,setting,value
"C[C@@]12C[C@@]3(O)O[C@H](O1)C1(COC(=O)c4ccccc4)[C@@H]3CC12OC1OC(COS(=O)(=O)c2ccccc2)C(O)C(O)C1O (stereo partly shown) [CP-25, Paeoniflorin-6′-O-benzenesulfonate]",Spleen B lymphocyte proliferation,spleen B lymphocytes,significantly inhibit
same,Spleen index,NOD model mice; 17.5 mg/kg,9.5 ± 4.2 mg/g
same,Submaxillary gland index,NOD model mice; 17.5 mg/kg,4.5 ± 0.8^ mg/g
same,Thymus index,NOD model mice; 17.5 mg/kg,1.3 ± 0.7 mg/g
same,Spleen index,NOD model mice; 35 mg/kg,4.2 ± 0.6 mg/g
same,Submaxillary gland index,NOD model mice; 35 mg/kg,4.3 ± 0.6 mg/g
same,Thymus index,NOD model mice; 35 mg/kg,1.1 ± 0.6 mg/g
same,Spleen index,NOD model mice; 70 mg/kg,4.3 ± 0.7 mg/g
same,Submaxillary gland index,NOD model mice; 70 mg/kg,4.2 ± 0.6 mg/g
same,Thymus index,NOD model mice; 70 mg/kg,1.4 ± 0.5 mg/g
same,Increasing of submaxillary gland index (in words),NOD model mice; Example 5,significantly suppress the increasing
same,Spleen B lymphocyte proliferation,spleen B lymphocyte,significantly inhibit
same,Spleen index,SS mice; 17.5 mg/kg,9.00 ± 1.61 mg/g
same,Submaxillary gland index,SS mice; 17.5 mg/kg,3.56 ± 0.62 mg/g
same,Thymus index,SS mice; 17.5 mg/kg,1.06 ± 0.31 mg/g
same,Spleen index,SS mice; 35 mg/kg,8.92 ± 1.33 mg/g
same,Submaxillary gland index,SS mice; 35 mg/kg,3.32 ± 0.66 mg/g
same,Thymus index,SS mice; 35 mg/kg,1.31 ± 0.42 mg/g
same,Spleen index,SS mice; 70 mg/kg,8.51 ± 1.42 mg/g
same,Submaxillary gland index,SS mice; 70 mg/kg,3.24 ± 0.57 mg/g
same,Thymus index,SS mice; 70 mg/kg,1.03 ± 0.44 mg/g
same,Increasing of submaxillary gland index (in words),SS mice; Example 2,significantly suppress the increasing
same,Ratio of spleen CD4+ CD25+FOXP3+ Treg lymphocytes,[1],significantly improve
same,Water intake,[2],begins to drop off
same,Score: mice with submaxillary gland pathology Grade 0,[3]; 17.5 mg/kg,0
same,Score: mice with submaxillary gland pathology Grade I,[3]; 17.5 mg/kg,0
same,Score: mice with submaxillary gland pathology Grade II,[3]; 17.5 mg/kg,0
same,Score: mice with submaxillary gland pathology Grade III,[3]; 17.5 mg/kg,1
same,Score: mice with submaxillary gland pathology Grade IV,[3]; 17.5 mg/kg,3
same,Score: mice with submaxillary gland pathology Grade 0,[3]; 35 mg/kg,0
same,Score: mice with submaxillary gland pathology Grade I,[3]; 35 mg/kg,0
same,Score: mice with submaxillary gland pathology Grade II,[3]; 35 mg/kg,0
same,Score: mice with submaxillary gland pathology Grade III,[3]; 35 mg/kg,1
same,Score: mice with submaxillary gland pathology Grade IV,[3]; 35 mg/kg,3
same,Score: mice with submaxillary gland pathology Grade 0,[3]; 70 mg/kg,0
same,Score: mice with submaxillary gland pathology Grade I,[3]; 70 mg/kg,0
same,Score: mice with submaxillary gland pathology Grade II,[3]; 70 mg/kg,0
same,Score: mice with submaxillary gland pathology Grade III,[3]; 70 mg/kg,3
same,Score: mice with submaxillary gland pathology Grade IV,[3]; 70 mg/kg,1 ^#
same,Pathological changes in submaxillary gland,"[3]; NOD model mice, Example 6",apparently ameliorate the pathological changes
